Data as given in US9216181B2 (Southwest Research Institute, priority 2011, dated 2015).
Where a name gives a salt, the structure may show the parent alone. Read-outs that look alike come from different tables or passages of the source.

What was measured:
BMP-7 = assay: Study II real time PCR, BMP-7 up-regulation in mesenchymal stem cells; format: cell-based, human; conditions: hMSC
Experimental: (§1) The testing procedure follows.
(§2) Cells based assays are done using 6 wells tissue culture plates, seeded with human mesenchymal stem cells (MSC) from Lonza, culture at 80% density. After seeding cells are treated with selected compounds at 10 μM, 5 μM and 2.5 μM for a 24 hour period, mRNA is collected using Qiagen kit RNAeasy kit and cDNA is prepared with same Qiagen kit, RT-PCR is done using kit from SABiosciences to measure gene expression for BMP2, 4 and 7 and run in Applied Biosystems Step One Plus. The protocol for mRNA isolation is described below.
(§3) Human mesenchymal stem cell growth medium passage 3 plated in a 6 well plate at 2.5×10^5 cells/well in hMSC Basal Medium+BulletKit (50 ml Growth Supplement, 10 ml L-Glutamine and 0.5 ml Gentamicin Sulfate Amphotericin-B) for 24 hrs. The compounds to be tested were added and after 24 hrs the media was aspirated, rinsed well once with PBS, and aspirated again. 350 ul of Lysis Buffer was added and the cells were stored at −20° C.
(§4) The lysate was homogenized by pipetting the lysate directly into a QIA shredder spin column placed in a 2-mL collection tube, and centrifuge for 2 min at full speed. 70% ethanol was added (1 vol. or […]) to the homogenized lysate (now at the bottom of the collection tube), and mixed well by pipetting. Up to 700 μL of the sample was transferred, including any precipitate that may have formed, to an RNeasy spin column placed in a 2-mL collection tube. This was centrifuged for 15 seconds at full speed. 700 μL of Buffer RW1 was added to the RNeasy spin column. This was centrifuged for 15 seconds at full speed to wash the spin column membrane.
(§5) 500 μL of Buffer RPE was added to the RNeasy spin column and centrifuged for 15 seconds at full speed. The flow through was discarded. 500 μL of Buffer RPE was added to the RNeasy spin column and centrifuged for 2 minutes at full speed to wash the spin column membrane. The RNeasy spin column was removed from the collection tube and the flow-through was discarded.
(§6) The RNeasy spin column was placed in a new 2-mL collection tube and centrifuged for 1 minute at full speed. The RNeasy spin column was removed from the collection tube, and the flow-through was discarded. The RNeasy spin column was placed in a new 1.5-mL collection tube. 30-50 μL of RNase-free water was added directly to the spin column membrane and this was centrifuged for 1 minute at full speed to elute the RNA.

BMP2 = assay: Quantitative PCR (TaqMan, ΔΔCt) of BMP2 in human mesenchymal stem cells; format: cell-based; conditions: Homo sapiens, Mesenchymal stem cells, BMP2 mRNA, hMSC, 10 μM, vs untreated, 18S reference, read-out: q-PCR Fold increase
Experimental: (§7) Human mesenchymal stem cells (LONZA, Catalog PT2501) were maintained in Mesenchymal stem cells basal media (MSCBM CAT#PT-3238). Early passage cells were plated in triplicate at 2×10^4 cells/cm^2 using six well tissue culture plates and grown in humidified 5% CO2 at 37° C. for 24 hours. Spent media was replaced by assay media of drugs to be tested in same media as above at 10 μM final concentration. Untreated cells were used as the control group. Total RNA were prepared using either TRI Reagent (Ambion, Cat. 9738), for subsequent TaqMan gene expression qPCR of BMP2. RNA concentration and integrity was assessed by absorbance 260/280 and electrophoresis in 1% Agarose with formaldehyde loading dye. For TaqMan gene expression, cDNA was synthesized from 2 μg of total RNA using the High Capacity cDNA Reverse Transcription Kit (Applied Biosystems, Cat. 4368814). The resulting cDNA were diluted 1:100 for TaqMan and amplified by real-time quantitative PCR. Gene-specific fluorescent labeled TaqMan primers for FAM-BMP2 (Applied Biosystems, Hs00154192.m1) and TaqMan reference VIC-18S ribosomal RNA (Applied Biosystems, 4310893E) were used to target gene of interest. A cocktail of universal master mix (Applied Biosystems, 4369016) were prepared individually for both set of primers which contained Taq Polymerase, dNTPs, and buffer. Template cDNA's were added separately to respective individual wells in triplicate samples. The PCR were performed on StepOne Plus Real Time System instrument (Applied Biosystems). The amplification program consisted of 1 cycle of 95° C. with 10 minute hold (hot start) followed by 50 cycles of 95° C. with 15 second annealing hold and 1 minute 60° C. specified acquisition hold. The Ct value of endogenous reference gene (i.e. 18 s) was used to control for input RNA and then used to normalize target gene (i.e. BMP2) tested from the same cDNA sample to calculate the Δ Ct, and then calibrated to an internal reference sample. Change in gene expression was determined by the expression ΔΔCt relative method.
18 compounds were confirmed positive by the more stringent qPCR techniques. […] Included in the tables is the target or common medical use for each compounds.

BMP-4 = assay: Study II real time PCR, BMP-4 up-regulation in mesenchymal stem cells; format: cell-based, human; conditions: hMSC, 24 hour, 2.5, 5 and 10 μM tested
Experimental: as §1, §2, §3, §4, §5
The RNeasy spin column was placed in a new 2-mL collection tube and centrifuged for 1 minute at full speed. […]

BMP-2 [1] = assay: Study II real time PCR, BMP-2 up-regulation in mesenchymal stem cells; format: cell-based, human; conditions: hMSC, 24 hour
Experimental: as §1, §2, §3, §4, §5, §6

BMP-2 [2] = assay: Real time PCR of BMP-2 gene expression in human MSC (Cells-to-Ct); format: cell-based; conditions: BMP-2 mRNA, hMSC, 5-10 μM, 24 hours, vs untreated
Experimental: Early passage human mesenchymal stem cells (MSC) were thawed from one frozen cryo-vial and seeded into two T-75 tissue culture flasks and incubated at 37° C. for 48 hours in Alpha MEM with 10% FBS. After three days and one re-feeding, the cells were trypsinized and re-suspended in pre-warmed media at 5×10^4 cells/mL to provide 5,000 cells per well in a 96 well plate and incubated overnight at 37° C. in 5% CO2.
Each well was washed in cold PBS, lysed at room temperature for five minutes, and stop reagent added to each well to stop the lysis reaction. The final lysate was kept cold at 4° C. and used immediately as the RNA template for the reverse transcription cDNA synthesis following the TAQMAN GENE EXPRESSION CELLS TO CT KIT instructions.
The cDNA synthesis was prepared on a separate sterile 96-well PCR plate and performed on the Step One Plus Real Time PCR System instrument (Applied Biosystems) with the programming set at 37° C. for 60 minutes and an inactivation hold of 95° C. for five minutes. The final cDNA reaction was kept cold and used as the template for the TAQMAN GENE Real-Time PCR step following the recommended instructions for TAQMAN GENE EXPRESSION CELLS TO CT KIT assay. […] Template cDNA's were added separately to respective individual wells in replicate samples.
The PCR was performed on the STEPONEPLUS Real-Time System instrument (Applied Biosystems). The amplification program consisted of 1 cycle of 95° C. with 10 minute hold (hot start) and followed by 50 cycles of 95° C. with 15-second annealing hold and 1-minute 60° C. specified acquisition hold.

[3] = tested on: human mesenchymal stem cells (MSC); format: cell-based; parameters: key: *: Dose caused cell death; conditions: hMSC, 24 hrs
BMP-2 [4] = assay: BMP-2 fold change of JHU library compounds, confirmed by qPCR; format: cell-based, human; conditions: JHU library compounds; non-treated = 1.00
Text: To further verify the technique, a 2T3 mouse pre-osteoblast cell line derived from calvaria courtesy of Dr. Steve Harris, UTHSCSA, was utilized to visually screen the compounds of the BIOMOL library and JHU libraries, purchased from John Hopkins University including 2387 compounds (solution in wells). Specifically, Murine 2T3 were thawed from one frozen cryovial and re-seeded into two T-75 tissue culture flasks grown in Alpha MEM with 10% FBS, Glutamine, and Pen/Strip antibiotics. Cells were incubated in a humidified 37° C. under 5% CO2 for 48 hours or when cells reached 80% confluence. After reaching confluency, the 2T3 were trypsinized and resuspended in pre-warm growth media to a cell density of 5×10^4 cells/mL. Approximately 100 uL of cell suspension was seeded to a 96 well plate to give a final 5,000 cells per well. Plate was incubated overnight at 37° C. and spent media was aspirated and replace with 100 uL of growth media with 5-10 uM of presumptive drug compounds. A set of controls were untreated and treated with 10 uM of Lovastatin to be used as a visual reference morphological screening.
as §7, with “Total RNA were prepared using either TRI Reagent (Ambion, Cat. 9738), for subsequent TaqMan gene expression qPCR of BMP2.” left out, “Gene-specific fluorescent labeled TaqMan primers for FAM-BMP2 (Applied Biosystems, Hs00154192.m1) and TaqMan reference VIC-18S ribosomal RNA (Applied Biosystems, 4310893E) were used to target gene of interest.” left out, “The Ct value of endogenous reference gene (i.e. 18 s) was used to control for input RNA and then used to normalize target gene (i.e. BMP2) tested from the same cDNA sample to calculate the Δ Ct, and then calibrated to an internal reference sample.” left out
Included in the tables is the target or common medical use for each compounds.

[5] = positive control compounds (Table 1)

With `COc1ccc(CCN2CCC(Nc3nc4ccccc4n3Cc3ccc(F)cc3)CC2)cc1` [Astemizole] the “BMP-7 Fold Increase/Dose” value (BMP-7; 2.5 μM, 24 hour) was ~8/2.5 fold, the “BMP-7 fold increases (in words)” value (BMP-7; 24 hour) was “exhibit BMP-7 fold increases” and the fold induction at 10 µM (BMP2; BIOMOL library (Table 2)) was 1. For the same compound, the “BMP-4 Fold Increase/Dose” value (BMP-4) was “None”, the “BMP-2 Fold Increase/Dose” value (BMP-2 [1]; 5 μM) was ~30 fold and the “BMP-2 Fold Increase/Dose” value (BMP-2 [1]; 10 μM) was ~7 fold. For the same compound, the “BMP-2 fold increases (in words)” value (BMP-2 [1]) was “exhibit BMP-2 fold increases” and the “RT PCR Fold increase” value (BMP-2 [2]; BIOMOL library (Table 2)) was 156.2 fold.

For `CC(C)(C)c1ccc(C(=O)CCCN2CCC(OC(c3ccccc3)c3ccccc3)CC2)cc1` [Ebastine], the cell death ([3]; 10 uM) was “*Ebastine”, the “BMP-7 Fold Increase/Dose” value (BMP-7; 10 μM, 24 hour) was ~3/10 fold and the “BMP-7 fold increases (in words)” value (BMP-7; 24 hour) was “exhibit BMP-7 fold increases”. For the same compound, the “BMP-4 Fold Increase/Dose” value (BMP-4) was “None”, the “BMP-2 Fold Increase/Dose” value (BMP-2 [1]; 10 μM) was ~8/10 μM fold and the “BMP-2 fold increases (in words)” value (BMP-2 [1]) was “exhibit BMP-2 fold increases”.

In the case of `CN(C)CCC(c1ccccc1)c1ccccn1` (centres unmarked) [Pheniramine], the “BMP-7 Fold Increase/Dose” value (BMP-7; 24 hour, 2.5, 5 and 10 μM tested, no dose stated) is reported as “None”, the “BMP-4 Fold Increase/Dose” value (BMP-4) is reported as “None” and the “BMP-2 Fold Increase/Dose” value (BMP-2 [1]; 10 μM) is reported as ~2/10 μM fold. The “BMP-2 fold increases (in words)” value (BMP-2 [1]) was “exhibit BMP-2 fold increases”.

For `CCN(CC)CCCC(C)Nc1c2ccc(Cl)cc2nc2ccc(OC)cc12` (centres unmarked) [Quinacrine], the cell death ([3]; 5 uM) was “*Quinacrine”, the cell death ([3]; 10 uM) was “*Quinacrine” and the fold induction at 10 µM (BMP2; BIOMOL library (Table 2)) was 95. For the same compound, the “Fold change (BMP-2)” value (BMP-2 [4]) was 722.00 fold and the “RT PCR Fold increase” value (BMP-2 [2]; BIOMOL library (Table 2)) was 52.9 fold.

`CC[C@]1(O)C[C@H]2CN(CCc3c([nH]c4ccccc34)[C@@](C(=O)OC)(c3cc4c(cc3OC)N(C=O)[C@H]3[C@@](O)(C(=O)OC)[C@H](OC(C)=O)[C@]5(CC)C=CCN6CC[C@]43[C@@H]65)C2)C1` [Vincristine sulfate] was tested, and the fold induction at 10 µM (BMP2; [5]) was 1.8, the “Fold change (BMP-2)” value (BMP-2 [4]) was 57.00 fold and the “RT PCR Fold increase” value (BMP-2 [2]; [5]) was 10.8 fold.
